Experimental data as given in patent publication US9346802B2, “CARM1 inhibitors and uses thereof” (Epizyme, Inc., priority 2013, dated 2016).

Target: T1, Human CARM1 (PRMT4) (Homo sapiens, UniProt Q86X55)
T1 construct: Flag-CARM1-His was eluted with 200 ug/ml FLAG peptide in buffer A; made in house; host or cells: HEK 293F cells infected with recombinant baculovirus (pFastBacMam)
T1 sequence (Q86X55 1-585 isoform Q86X55-1): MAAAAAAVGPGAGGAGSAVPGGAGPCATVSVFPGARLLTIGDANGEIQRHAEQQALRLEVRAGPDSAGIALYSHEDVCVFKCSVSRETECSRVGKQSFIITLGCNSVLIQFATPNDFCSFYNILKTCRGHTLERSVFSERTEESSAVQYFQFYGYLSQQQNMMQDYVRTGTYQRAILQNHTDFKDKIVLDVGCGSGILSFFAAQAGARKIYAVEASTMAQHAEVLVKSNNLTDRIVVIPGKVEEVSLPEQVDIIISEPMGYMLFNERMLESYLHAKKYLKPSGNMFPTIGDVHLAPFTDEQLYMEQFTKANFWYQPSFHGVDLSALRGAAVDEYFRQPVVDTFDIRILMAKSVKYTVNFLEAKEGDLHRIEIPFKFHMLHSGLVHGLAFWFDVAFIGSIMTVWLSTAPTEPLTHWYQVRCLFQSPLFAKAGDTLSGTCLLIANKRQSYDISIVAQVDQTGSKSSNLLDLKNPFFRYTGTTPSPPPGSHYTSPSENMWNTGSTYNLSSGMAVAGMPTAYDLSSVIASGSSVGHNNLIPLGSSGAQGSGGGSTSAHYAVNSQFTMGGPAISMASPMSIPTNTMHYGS
Experiment: CARM1 enzyme assay on peptide substrate (3H-SAM Flashplate)
Assay type: biochemical
Conditions: CARM1 0.25 nM, 3H-SAM 30 nM, peptide 250 nM, 30 min preincubation; read-out: Biochem IC50
Excerpt: Peptide representative of human histone H3 residues 16-30 was synthesized with an N-terminal linker-affinity tag motif and a C-terminal amide cap by 21st Century Biochemicals. The peptide was purified by high-performance liquid chromatography (HPLC) to greater than 95% purity and confirmed by liquid chromatography mass spectrometry (LC-MS). The sequence was Biot-Ahx-[…]-amide and contained a monomethylated arginine at position 26 (SEQ ID NO.:1).
Human CARM1 (PRMT4) (NM_199141.1) transcript clone was amplified from an HEK 293 cDNA library, incorporating a flanking 5′ sequence encoding a FLAG tag ([…]) (SEQ ID NO.:2) fused directly to Ala 2 of CARM1 and 3′ sequence encoding a hexa His sequence ([…]) (SEQ ID NO.:3) fused directly to Ser 608. The gene sequence encoding isoform1 containing a deletion of amino acids 539-561 was amplified subsequently and subcloned into pFastBacMam (Viva Biotech).
Recombinant baculovirus were generated according to Bac-to-Bac kit instructions (Life Technologies). Protein over-expression was accomplished by infecting exponentially growing HEK 293F cell culture at 1.3×10^6 cell/ml with virus (MOI=10) in the presence of 8 mM sodium butyrate. Infections were carried out at 37° C. for 48 hours, harvested by centrifugation, and stored at −80° C. for purification.
Expressed full-length human Flag- and His-tagged CARM1 protein was purified from cell paste by anti-flag M2 affinity chromatography with resin equilibrated with buffer containing 20 mM Tris, 150 mM NaCl, 5% glycerol, pH 7.8. Column was washed with 500 mM NaCl in buffer A and Flag-CARM1-His was eluted with 200 ug/ml FLAG peptide in buffer A. Pooled fractions were dialyzed in 20 mM Tris, 150 mM NaCl, 5% glycerol and 1 mM DTT, pH 7.8. The purity of recovered protein was 94.
The assays were all performed in a buffer consisting of 20 mM Bicine (pH=7.6), 1 mM TCEP, 0.005% BSG, and 0.002% Tween 20, prepared on the day of use. Compounds in 100% DMSO (1 ul) were spotted into a polypropylene 384-well V-bottom plates (Greiner) using a Platemate Plus outfitted with a 384-channel head (Thermo Scientific). DMSO (1 ul) was added to Columns 11, 12, 23, 24, rows A-H for the maximum signal control and 1 ul of SAH, a known product and inhibitor of CARM1, was added to columns 11, 12, 23, 24, rows I-P for the minimum signal control. A cocktail (40 ul) containing the CARM1 enzyme was added by Multidrop Combi (Thermo-Fisher). The compounds were allowed to incubate with CARM1 for 30 min at room temperature, then a cocktail (10 ul) containing ^3H-SAM and peptide was added to initiate the reaction (final volume=51 ul). The final concentrations of the components were as follows: CARM1 was 0.25 nM, ^3H-SAM was 30 nM, peptide was 250 nM, SAH in the minimum signal control wells was 1 mM, and the DMSO concentration was 2%. The assays were stopped by the addition of non-radiolabeled SAM (10 ul) to a final concentration of 300 uM, which dilutes the ^3H-SAM to a level where its incorporation into the peptide substrate is no longer detectable. 50 ul of the reaction in the 384-well polypropylene plate was then transferred to a 384-well Flashplate and the biotinylated peptides were allowed to bind to the streptavidin surface for at least 1 hour before being washed once with 0.1% Tween20 in a Biotek ELx405 plate washer. The plates were then read in a PerkinElmer TopCount plate reader to measure the quantity of ^3H-labeled peptide bound to the Flashplate surface, measured as disintegrations per minute (dpm) or alternatively, referred to as counts per minute (cpm).
[formula] where dpm=disintegrations per minute, cmpd=signal in assay well, and min and max are the respective minimum and maximum signal controls.
[formula] where top and bottom are the normally allowed to float, but may be fixed at 100 or 0 respectively in a 3-parameter fit. The Hill Coefficient normally allowed to float but may also be fixed at 1 in a 3-parameter fit. […]

Row | IC50 | Structure (SMILES)
1 | 0.1 to 1 µM | CNCC(O)COc1cccc(-c2cc(N(C)C3CCOCC3)nc(C)n2)c1 (centres unmarked) [Compound 1-2]
2 | 0.1 to 1 µM | CNCC(O)COc1cccc(-c2cc(NC3CCOCC3)nc(N(C)C)n2)c1 (centres unmarked) [Compound 3-2]
3 | 3 to 10 µM | C#Cc1cc(NC2CCOCC2)nc(-c2cccc(OCC(O)CNC)c2)n1 (centres unmarked) [Compound 5-1]
4 | 0.1 to 1 µM | CNCC(O)COc1cccc(-c2nc(C)cc(N(C)C3CCOCC3)n2)c1 (centres unmarked) [Compound 6-1]
5 | 0.1 to 1 µM | C#Cc1cc(N(C)C2CCOCC2)nc(-c2cccc(OCC(O)CNC)c2)n1 (centres unmarked) [Compound 7-1]
6 | 0.1 to 1 µM | CNCC(O)COc1cccc(-c2cc(NC3CCOCC3)nc(NC(C)C)n2)c1 (centres unmarked) [Compound 9-2]
7 | 0.1 to 1 µM | CNCC(O)COc1cccc(-c2cc(N[C@H]3CCOC3)nc(C3CCOCC3)n2)c1 (some centres unmarked) [Compound 10-2]
8 | 0.1 to 1 µM | CNCC(O)COc1cccc(-c2cc(NC3CCOCC3)nc(-c3ccncc3)n2)c1 (centres unmarked) [Compound 11-2]
9 | 0.1 to 1 µM | CNCC(O)COc1cccc(-c2nc(NC3CCOCC3)cc(NC3CC3)n2)c1 (centres unmarked) [Compound 12-1]
10 | 0.1 to 1 µM | CNCC(O)COc1cccc(-c2cc(NC3CCOCC3)nc(N3CCOCC3)n2)c1 (centres unmarked) [Compound 12-2]
11 | 0.1 to 1 µM | CNCC(O)COc1cccc(-c2nc(N3CCOCC3)nc(N[C@H]3CCOC3)c2C)c1 (some centres unmarked) [Compound 13-2]
12 | 0.1 to 1 µM | CNCC(O)COc1cccc(-c2nc(NC(C)C)cc(NC3CCOCC3)n2)c1 (centres unmarked) [Compound 16-1]
13 | 1 to 3 µM | C=C(Cl)c1cc(NC2CCOCC2)nc(-c2cccc(OCC(O)CNC)c2)n1 (centres unmarked) [Compound 17-1]
14 | 0.1 to 1 µM | CNCC(O)COc1cccc(-c2nc(C(C)C)c(C)c(N(C)C3CCOCC3)n2)c1 (centres unmarked) [Compound 21-1]
15 | 0.1 to 1 µM | CNCC(O)COc1cccc(-c2nc(NCCOC)cc(-c3cccc(C#N)c3)n2)c1 (centres unmarked) [Compound 23-1]
16 | 0.1 to 1 µM | CNCC(O)COc1cccc(-c2nc(NC3CCOCC3)cc(N3CCOCC3)n2)c1 (centres unmarked) [Compound 27-1]
17 | 0.1 to 1 µM | CNCC(O)COc1cc(Cl)cc(-c2nc(C3CC3)cc(N(C)C3CCOCC3)n2)c1 (centres unmarked) [Compound 28-1]
18 | 0.1 to 1 µM | CNCC(O)COc1cccc(-c2nc(-c3ccnc(OC)c3)cc(N(C)CCC#N)n2)c1 (centres unmarked) [Compound 30-1]
19 | 0.1 to 1 µM | CNCC(O)COc1cc(Cl)cc(-c2nc(C(C)C)cc(N(C)C3CCOCC3)n2)c1 (centres unmarked) [Compound 31-1]
20 | 0.1 to 1 µM | CNCC(O)COc1cccc(-c2nc(-c3cc4ccccc4o3)cc(N(C)CCC#N)n2)c1 (centres unmarked) [Compound 35-1]
21 | 0.1 to 1 µM | CNCC(O)COc1cccc(-c2nc(NC3CCOCC3)cc(-c3cccc(C#N)c3)n2)c1 (centres unmarked) [Compound 38-1]

Row | IC50 | Structure (SMILES)
22 | 0.1 to 1 µM | CNCC(O)COc1cccc(-c2nc(NCCOC)cc(-c3cccc4ncccc34)n2)c1 (centres unmarked) [Compound 39-1]
23 | 0.1 to 1 µM | CNCC(O)COc1cccc(-c2nc(-c3ccnc(C)c3)cc(N(C)C3CCOCC3)n2)c1 (centres unmarked) [Compound 40-1]
24 | 0.1 to 1 µM | CNCC(O)COc1cccc(-c2nc(-c3cncnc3)cc(N(CCOC)CCOC)n2)c1 (centres unmarked) [Compound 43-1]
25 | 0.1 to 1 µM | CNCC(O)COc1cccc(-c2nc(-c3cccc4ncccc34)cc(N(C)CCC#N)n2)c1 (centres unmarked) [Compound 44-1]
26 | 0.1 to 1 µM | CNCC(O)COc1cc(Cl)cc(-c2nc(N[C@@H]3CCOC3)c(C)c(C3=CCOCC3)n2)c1 (some centres unmarked) [Compound 47-1]
27 | 0.1 to 1 µM | CNCC(O)COc1cccc(-c2nc(NC3CCOCC3)cc(-c3cnn(CC(C)C)c3)n2)c1 (centres unmarked) [Compound 51-1]
28 | 0.1 to 1 µM | CNCC(O)COc1cccc(-c2nc(-c3c(C)noc3C)cc(N(CCOC)CCOC)n2)c1 (centres unmarked) [Compound 52-1]
29 | 0.1 to 1 µM | CNCC(O)COc1cccc(-c2nc(-c3ccc(C(F)(F)F)nc3)cc(N(C)CCC#N)n2)c1 (centres unmarked) [Compound 54-1]
30 | 0.1 to 1 µM | CNCC(O)COc1cc(Cl)cc(-c2nc(-c3ccncc3)c(C)c(N(C)C3CCOCC3)n2)c1 (centres unmarked) [Compound 58-1]
31 | 1 to 3 µM | CNCC(O)COc1cccc(-c2nc(-c3ccc(OC)c(OC)c3)cc(N(C)C3CCOCC3)n2)c1 (centres unmarked) [Compound 61-1]
32 | 0.1 to 1 µM | CNCC(O)COc1cc(Cl)cc(-c2nc(-c3cc(C)nc(C)c3)c(C)c(N(C)C3CCOCC3)n2)c1 (centres unmarked) [Compound 63-1]
33 | 0.1 to 1 µM | CNCC(O)COc1cc(Cl)cc(-c2nc(-c3ccnc(OC)c3)cc(N(CCOC)CCOC)n2)c1 (centres unmarked) [Compound 65-1]
34 | 0.1 to 1 µM | CNCC(O)COc1cccc(-c2nc(NCCCN3CCCC3=O)cc(-c3ccc4c(c3)OCCO4)n2)c1 (centres unmarked) [Compound 66-1]
35 | 0.1 to 1 µM | CNCC(O)COc1cccc(-c2nc(-c3ccc(C(F)(F)F)nc3)cc(N(CCOC)CCOC)n2)c1 (centres unmarked) [Compound 67-1]
36 | 0.1 to 1 µM | CNCC(O)COc1cccc(-c2nc(NCCCN3CCCC3=O)cc(-c3ccc(OC)c(OC)c3)n2)c1 (centres unmarked) [Compound 68-1]
37 | 0.1 to 1 µM | CNCC(O)COc1cc(Cl)cc(-c2nc(-c3cn4ccccc4n3)c(C)c(N(C)C3CCOCC3)n2)c1 (centres unmarked) [Compound 69-1]
38 | 0.1 to 1 µM | CNCC(O)COc1cccc(-c2nc(-c3ccc(S(C)(=O)=O)cc3)cc(N(CCOC)CCOC)n2)c1 (centres unmarked) [Compound 72-1]
39 | 0.1 to 1 µM | CNCC(O)COc1cccc(-c2nc(NCCCN3CCCC3=O)cc(-c3ccc(S(C)(=O)=O)cc3)n2)c1 (centres unmarked) [Compound 73-1]
40 | 0.1 to 1 µM | CNCC(O)COc1cc(Cl)cc(-c2nc(-c3ccc4c(c3)OCCO4)cc(N(CCOC)CCOC)n2)c1 (centres unmarked) [Compound 74-1]
41 | 0.1 to 1 µM | CNCC(O)COc1cc(Cl)cc(-c2nc(-c3ccc(OC)c(OC)c3)cc(N(CCOC)CCOC)n2)c1 (centres unmarked) [Compound 75-1]
